Several values for one entry are separate records, joined by “and”; a condition that tells them apart may be missing. Equal values may be shown once. Toxic doses and inconclusive results are not listed. Rule for the calls: active = survival T/C of 150% or more; inactive = T/C below 125% in these data.
System: CD2F1 mice, L1210 leukemia ip, survival T/C
Experiment: NCI In Vivo Anticancer Drug Screen. Data for tumor model L1210 Leukemia (intraperitoneal) in CD2F1 (CDF1) mice
Conditions: higher = longer survival
How it was run: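 In this screen, transplantable tumors were grown in mice given either the compound or its vehicle. Results were expressed as the treated measurement relative to the control measurement.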

[1] = endpoint: mean survival time, dose: 12.5 mg/kg/injection, schedule: Q01DX009 (ip), vehicle: water
[2] = endpoint: mean survival time, dose: 25.0 mg/kg/injection, schedule: Q01DX009 (ip), vehicle: water
[3] = endpoint: mean survival time, dose: 50.0 mg/kg/injection, schedule: Q01DX009 (ip), vehicle: water
[4] = endpoint: mean survival time, dose: 100.0 mg/kg/injection, schedule: Q01DX009 (ip), vehicle: water
[5] = endpoint: mean survival time, dose: 100.0 mg/kg/injection, schedule: Q04DX002 (ip), vehicle: saline with Tween-80
[6] = endpoint: mean survival time, dose: 100.0 mg/kg/injection, schedule: Q04DX003 (ip), vehicle: saline with Tween-80
[7] = endpoint: mean survival time, dose: 200.0 mg/kg/injection, schedule: Q04DX003 (ip), vehicle: saline with Tween-80
[8] = endpoint: mean survival time, dose: 400.0 mg/kg/injection, schedule: Q04DX003 (ip), vehicle: saline with Tween-80

Measured: T/C

CC(C)(C)CC(C)(C)Nc1nc(NC(C)(C)CC(C)(C)C)nc(NC(C)(C)CC(C)(C)C)n1
inactive: endpoint: mean survival time, dose: 12.5 mg/kg/injection, schedule: Q01DX009 (ip), vehicle: saline with Tween-80 101 % of control | endpoint: mean survival time, dose: 25.0 mg/kg/injection, schedule: Q01DX009 (ip), vehicle: saline with Tween-80 95 % of control | endpoint: mean survival time, dose: 50.0 mg/kg/injection, schedule: Q01DX009 (ip), vehicle: saline with Tween-80 97 % of control

O=C(O)C1CC(c2ccccc2)=NN1c1ccccc1 (stereo not given)
inactive: [1] 101 % of control and 103 % of control and 104 % of control | [2] 96 % of control and 101 % of control and 102 % of control | [3] 96 % of control and 102 % of control (2×) | [4] 93 % of control and 102 % of control and 104 % of control | endpoint: mean survival time, dose: 200.0 mg/kg/injection, schedule: Q01DX009 (ip), vehicle: water 102 % of control (2×) and 112 % of control

ClCC(Cl)CN1CCCCC1 (stereo not given)
inactive: endpoint: mean survival time, dose: 25.0 mg/kg/injection, schedule: Q01DX009 (ip), vehicle: saline 100 % of control | endpoint: mean survival time, dose: 50.0 mg/kg/injection, schedule: Q01DX009 (ip), vehicle: saline 103 % of control

CC(Cc1ccccc1)NNC(C)Cc1ccccc1 (stereo not given)
inactive: endpoint: mean survival time, dose: 75.0 mg/kg/injection, schedule: Q01DX001 (ip), vehicle: saline 98 % of control | endpoint: mean survival time, dose: 150.0 mg/kg/injection, schedule: Q01DX001 (ip), vehicle: saline 102 % of control | endpoint: mean survival time, dose: 300.0 mg/kg/injection, schedule: Q01DX001 (ip), vehicle: saline 97 % of control

COc1cc2c(cc1OC)C(N)CCC2 (stereo not given)
inactive: [1] 97 % of control | [2] 103 % of control | [3] 98 % of control | [4] 105 % of control

CCOC1=Cc2c(oc3c(C(C)(C)C)cc(OCC)cc23)OC(C(C)(C)C)=C1
inactive: endpoint: median survival time, dose: 1.56 mg/kg/injection, schedule: Q01DX009 (ip), vehicle: saline with Tween-80 95 % of control and 102 % of control | endpoint: median survival time, dose: 3.12 mg/kg/injection, schedule: Q01DX009 (ip), vehicle: saline with Tween-80 95 % of control and 102 % of control | endpoint: median survival time, dose: 6.25 mg/kg/injection, schedule: Q01DX009 (ip), vehicle: saline with Tween-80 101 % of control and 102 % of control | endpoint: median survival time, dose: 12.5 mg/kg/injection, schedule: Q01DX009 (ip), vehicle: saline with Tween-80 98 % of control and 103 % of control | endpoint: median survival time, dose: 25.0 mg/kg/injection, schedule: Q01DX009 (ip), vehicle: saline with Tween-80 98 % of control and 102 % of control | endpoint: median survival time, dose: 50.0 mg/kg/injection, schedule: Q01DX009 (ip), vehicle: saline with Tween-80 114 % of control and 98 % of control

CN(C)C(=S)Oc1ccc(S(=O)(=O)F)c(Cl)c1Cl
inactive: [5] 87 % of control | endpoint: mean survival time, dose: 400.0 mg/kg/injection, schedule: Q04DX002 (ip), vehicle: saline with Tween-80 87 % of control

O=C(O)C(O)(c1ccccc1)c1ccsc1 (stereo not given)
inactive: [6] 101 % of control | [7] 98 % of control | [8] 103 % of control

CC/C(I)=C(/CC)S(=O)(=O)c1ccc(C)cc1
inactive: endpoint: mean survival time, dose: 100.0 mg/kg/injection, schedule: Q04DX003 (ip), vehicle: saline 95 % of control | endpoint: mean survival time, dose: 200.0 mg/kg/injection, schedule: Q04DX003 (ip), vehicle: saline 103 % of control | endpoint: mean survival time, dose: 400.0 mg/kg/injection, schedule: Q04DX003 (ip), vehicle: saline 94 % of control

N#Cc1[nH]nc2ncnc(NC(=O)C(F)(F)F)c12
inactive: endpoint: mean survival time, dose: 6.25 mg/kg/injection, schedule: Q01DX005 (ip), vehicle: water 111 % of control | endpoint: mean survival time, dose: 12.5 mg/kg/injection, schedule: Q01DX005 (ip), vehicle: water 96 % of control | endpoint: mean survival time, dose: 25.0 mg/kg/injection, schedule: Q01DX005 (ip), vehicle: water 107 % of control | endpoint: mean survival time, dose: 50.0 mg/kg/injection, schedule: Q01DX005 (ip), vehicle: water 96 % of control

Cc1ccc(OC(=O)Nc2cccc3ccccc23)cc1C
inactive: [5] 95 % of control | endpoint: mean survival time, dose: 200.0 mg/kg/injection, schedule: Q04DX002 (ip), vehicle: saline with Tween-80 91 % of control

COC(=O)CCC(=O)NCCc1c[nH]c2ccccc12
inactive: [6] 98 % of control | [7] 93 % of control | [8] 98 % of control
